Measurements reported in US9132141B2 (priority 2012, dated 2015).

Tests used:
[1] = test system: influenza; assay: Survival of influenza-infected TLR2−/− and CD14−/− mice; type: in vivo; conditions: treated 2 days post-infection for 5 successive days
Excerpt: Normal mice (WT), TLR4^−/−, TLR2^−/−, and CD14^−/− were infected with influenza and then were untreated (closed circles) or treated with eritoran (open circles) 2 days post-infection, for 5 successive days. (FIG. 13a). […] WT data were combined from 5 separate experiments (5-6 mice per treatment per experiment), TLR4^−/− data were combined from 3 separate experiments (5-6 mice per treatment per experiment), CD14^−/− data were combined from 2 separate experiments (4-5 mice per treatment per experiment). WT: untreated vs eritoran (p, 0.0001); TLR4^−/−: untreated vs. eritoran (p=ns); CD14^−/−: untreated vs. eritoran (p=ns); TLR2^−/−: untreated vs. eritoran (p=ns).

[2] = test system: PR8; assay: Influenza-induced cytokine and interferon mRNA in lungs of PR8-infected mice (real-time PCR); type: in vivo; conditions: 200 μg/mouse i.v. starting on day 2
[3] = test system: PR8; assay: Influenza-induced serum liver enzyme levels (ALT, AST) in PR8-infected mice; type: in vivo, C57BL/6J WT mice; conditions: 200 μg/mouse i.v. starting on day 2; serum day 7
Procedure: Mice infected i.n. with 50 μl of PR8 (˜7500 TCID50/mouse). Mice injected i.v. with 100 μl of eritoran (200 μg/mouse) starting on day 2 post-infection. Serum was collected on day 7 from C57BL/6J WT mice that were either mock-infected with saline or infected with PR8 and were either left untreated or were treated with eritoran starting on day 2 post-infection. Alanine aminotransaminase (ALT) and aspartate aminotransaminase (AST) were measured (Siemens Healthcare Diagnostics, Ltd.). […] Data represent 2 separate experiments with 4 mice per treatment per experiment.

[4] = test system: PR8; assay: Lung viral titers in PR8-infected mice; type: in vivo; conditions: ~7500 TCID50 PR8, 200 μg/mouse i.v. starting on day 2
[5] = test system: A/California/07/2009, H1N1; assay: Direct antiviral effect: virus titration in MDCK cells
[6] = test system: PR8; assay: Survival of PR8-infected IFNβ−/− mice; type: in vivo; conditions: ~7500 TCID50 PR8; treated 2 days post-infection for 5 successive days
Excerpt: Wild-type and IFNβ^−/− mice were infected with ˜7500 TCID50 PR8 and were left either untreated (circles) or treated with eritoran 2 days post-infection, for 5 successive days (squares). (FIG. 11). Data represent the combined results of 2 separate experiments (6 mice per treatment per experiment; WT: untreated vs. eritoran treatment (p<0.0013); IFNβ^−/−: untreated v. eritoran treatment (p=ns).

[7] = biological target: T1, TLR4 (Mus musculus, UniProt Q9JHF9+Q9QUK6); assay: OxPAPC-induced IL-6 gene expression in peritoneal macrophages; type: cell-based; conditions: pretreatment 10 ng/mL for 1 hour, OxPAPC 20 μg/mL
T1 construct: endogenous in cells; host or cells: peritoneal macrophages from wild-type C57BL/6J mice
T1 sequence (Q9QUK6 26-835): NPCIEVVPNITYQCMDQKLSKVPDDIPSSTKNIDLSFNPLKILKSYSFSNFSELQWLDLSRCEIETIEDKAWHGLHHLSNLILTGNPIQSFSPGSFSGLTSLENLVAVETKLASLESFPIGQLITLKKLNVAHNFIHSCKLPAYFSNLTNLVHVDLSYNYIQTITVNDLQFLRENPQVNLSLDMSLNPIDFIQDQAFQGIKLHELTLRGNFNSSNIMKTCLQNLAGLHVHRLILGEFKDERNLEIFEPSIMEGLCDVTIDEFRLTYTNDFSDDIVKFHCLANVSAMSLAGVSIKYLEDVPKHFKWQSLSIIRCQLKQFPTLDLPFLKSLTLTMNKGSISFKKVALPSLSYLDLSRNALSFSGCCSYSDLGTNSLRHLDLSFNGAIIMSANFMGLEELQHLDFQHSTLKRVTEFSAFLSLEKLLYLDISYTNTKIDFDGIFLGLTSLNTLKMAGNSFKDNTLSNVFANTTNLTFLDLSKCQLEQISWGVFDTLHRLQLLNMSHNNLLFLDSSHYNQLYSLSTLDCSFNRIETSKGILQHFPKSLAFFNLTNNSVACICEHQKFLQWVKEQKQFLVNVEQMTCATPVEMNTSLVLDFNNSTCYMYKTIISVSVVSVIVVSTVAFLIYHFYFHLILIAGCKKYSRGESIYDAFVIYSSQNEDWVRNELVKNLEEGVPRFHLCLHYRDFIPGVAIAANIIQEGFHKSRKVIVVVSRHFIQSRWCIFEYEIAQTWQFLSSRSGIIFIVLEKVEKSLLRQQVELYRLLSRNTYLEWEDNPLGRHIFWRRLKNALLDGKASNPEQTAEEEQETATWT
T1 sequence (Q9JHF9 19-160): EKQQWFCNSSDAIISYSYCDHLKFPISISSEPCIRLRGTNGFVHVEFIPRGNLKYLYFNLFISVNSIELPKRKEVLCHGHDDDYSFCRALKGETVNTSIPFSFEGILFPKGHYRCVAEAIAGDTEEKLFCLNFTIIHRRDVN
Procedure: Wild-type C57BL/6J, TLR4^−/−, and TLR2^−/− peritoneal macrophages were pretreated with eritoran (10 ng/mL) for 1 hour and then treated with medium alone, LPS (20 ng/mL), P3C (300 ng/mL), or OxPAPC (20 μg/mL) and RNA expression was measured. Commercially obtained OxPAPC activated IL-6 gene expression in WT and TLR2^−/− mouse peritoneal macrophages, but not in cells from TLR4^−/− mice (FIG. 9). […] Data are means+/−s.e.m. from 1 experiment with samples done in triplicate (*p<0.001, #p<0.05).

[8] = test system: PR8; assay: Oxidized phospholipids in lungs of PR8-infected mice (MALDI-IMS); type: in vivo, mouse; conditions: PR8-infected mice with or without treatment
Excerpt: To assess the effect of eritoran on production of oxidized phospholipids during infection, MALDI-IMS was used to identify alterations in the lipid composition of mouse lungs after PR8, with or without eritoran treatment. […] (FIG. 10a). Results are representative of 4 replicate experiments. The structures of abundant phosphatidylcholine (PC) and predicted oxidized phosphatidylcholine (OxPC) molecules and molecular weights: 1-palmitoyl-2-linoleoyl PC (PLPC) m/z 757.6, 1-palmitoyl-2-arachadonyl PC (PAPC) m/z 782.1, and predicted structures of oxidized PC molecules and molecular weight, 1-palmitoyl-2-(9-oxo)nonanoyl PC (PONPC) m/z 649.4, (PEIPC) 1-palmitoyl-2-(5,6-epoxyisoprostance E2 oyl) PC m/z 828.1 are shown. (FIG. 10b).

[9] = test system: PR8; assay: Influenza-induced lung pathology in PR8-infected mice (H&E histology); type: in vivo; conditions: ~7500 TCID50 PR8; 200 μg/mouse i.v. starting on day 2; day 7 post-infection
Procedure: Mice were infected i.n. with 50 μl of PR8 (˜7500 TCID50/mouse). Mice were then injected i.v. with 100 μl of eritoran (200 μg/mouse) starting on day 2 post-infection. Mice were then sacrificed on day 7 post-infection (day […] post-eritoran treatment) and lungs harvested for lung pathology (4 mice/treatment group). Murine lungs were inflated and perfused and fixed with 4% PFA. Fixed sections (8 μm) of paraffin-embedded lungs were stained with hematoxylin and eosin (H&E). Slides were randomized, read blindly, and examined for tissue damage, necrosis, apoptosis, and proinflammatory cellular infiltration. […] Pulse oximetry measurements were performed to confirm these observations.

CCCCCC/C=C\CCCCCCCCCC(=O)N[C@H]1[C@H](OC[C@H]2O[C@H](OP(=O)(O)O)[C@H](NC(=O)CC(=O)CCCCCCCCCCC)[C@@H](OCCCCCCCCCC)[C@@H]2O)O[C@H](COC)[C@@H](OP(=O)(O)O)[C@@H]1OCC[C@@H](CCCCCCC)OC [eritoran, α-D-Glucopyranose, 3-O-decyl-2-deoxy-6-O-[2-deoxy-3-O-[(3R)-3-methoxydecyl)-6-O-methyl-2-[[(-11Z)-1-oxo-11-octadecenyl)amino]-4-O-phosphono-β-D-glucopyranosyl]-2-[(1,3-dioxotetradecyl)amino]-1-(dihydrogen phosphate)]
protection (survival) in TLR2−/− or CD14−/− mice [1]: ineffective at inducing protection | cytokine gene expression in lung ([2]; days 2, 4, 6 post-infection): significantly reduced cytokine gene expression at each time point | interferon production (mRNA) in lung ([2]; depends on interferon species): variable levels of interferon production compared to control mice | liver enzyme levels (ALT, AST) in serum [3]: lower levels of liver enzymes post-infection | lung viral titers on day 7 ([4]; day 7 post-infection): further decreased | lung viral titers ([4]; lungs harvested days 2, 4, 6): statistically significant decrease in lung viral titers | Titer ([5]; Experiment 1, 10 ng/mL applied 1 hour prior to virus): 1.0 × 10^6 TCID50/ml | Titer ([5]; Experiment 1, 10 ng/mL applied at the same time as virus): 3.1 × 10^6 TCID50/ml | Titer ([5]; Experiment 2, 10 ng/mL applied 1 hour prior to virus): 3.4 × 10^5 TCID50/ml | Titer ([5]; Experiment 2, 10 ng/mL applied at the same time as virus): 6.3 × 10^6 TCID50/ml | protection (survival) in IFNβ−/− mice [6]: does not induce protection | TLR4-dependent cell activation by OxPAPC (IL-6 gene expression) [7]: substantially inhibited | oxidation products of phospholipids in lung [8]: detected in greater abundance and intensity in PR8-infected versus mice that were treated with eritoran | lung sections nearly normal [9]: ~80 % of lung sections | lung sections showing inflammatory infiltrates [9]: ~20 % of lung sections
